Several values for one entry are separate records, joined by “and”; a condition that tells them apart may be missing. Equal entries are not always repeated.
System: 292921-168-R tumor spheroid viability
Assay: Anticancer human tumor 292921-168-R patient-derived pancreatic carcinoma cell line growth inhibition
Details: spheroids with HUVEC and MSC; for viability, T/C: stronger effect = lower value
In short: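 Single agents and combinations were tested on spheroids built from tumor cells plus HUVEC and hMSC, at half-log dilutions starting at or near clinical Cmax, else 10 microM; final DMSO 0.25% (v/v).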
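Also: spheroids exposed to compounds for 7 days.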

Structure (SMILES): Cn1ncnc1[C@H]1c2n[nH]c(=O)c3cc(F)cc(c23)N[C@@H]1c1ccc(F)cc1 + COc1cc2c(cc1O)CCNC21CSC2c3c(OC(C)=O)c(C)c4c(c3C(COC1=O)N1C(O)C3Cc5cc(C)c(OC)c(O)c5C(C21)N3C)OCO4
- IC50 (curve of first compound, second compound 30 pM): 646 nM
- IC50 (curve of first compound, second compound 94.9 pM): 233 nM
- IC50 (curve of first compound, second compound 0.0003 µM): < 9.49 nM
- IC50 (curve of first compound, second compound 0.000949 µM): < 9.49 nM
- IC50 (curve of first compound, second compound 0.003 µM): < 9.49 nM
- viability, T/C (second compound 30 pM, first compound 0.00949 µM): 103%
- viability, T/C (second compound 30 pM, first compound 0.03 µM): 86.9%
- viability, T/C (second compound 30 pM, first compound 0.0949 µM): 76.5%
- viability, T/C (second compound 30 pM, first compound 0.3 µM): 70.5%
- viability, T/C (second compound 30 pM, first compound 0.949 µM): 41.4%
- viability, T/C (second compound 30 pM, first compound 3 µM): 11.9%
- viability, T/C (second compound 94.9 pM, first compound 0.00949 µM): 85.1%
- viability, T/C (second compound 94.9 pM, first compound 0.03 µM): 69.8%
- viability, T/C (second compound 94.9 pM, first compound 0.0949 µM): 65.1%
- viability, T/C (second compound 94.9 pM, first compound 0.3 µM): 47.5%
- viability, T/C (second compound 94.9 pM, first compound 0.949 µM): 26.4%
- viability, T/C (second compound 94.9 pM, first compound 3 µM): 9.68%
- viability, T/C (second compound 0.0003 µM, first compound 0.00949 µM): 26.6%
- viability, T/C (second compound 0.0003 µM, first compound 0.03 µM): 29.4%
- viability, T/C (second compound 0.0003 µM, first compound 0.0949 µM): 24.2%
- viability, T/C (second compound 0.0003 µM, first compound 0.3 µM): 17.1%
- viability, T/C (second compound 0.0003 µM, first compound 0.949 µM): 14.6%
- viability, T/C (second compound 0.0003 µM, first compound 3 µM): 7%
- viability, T/C (second compound 0.000949 µM, first compound 0.00949 µM): 4.23%
- viability, T/C (second compound 0.000949 µM, first compound 0.03 µM): 4.2%
- viability, T/C (second compound 0.000949 µM, first compound 0.0949 µM): 3.68%
- viability, T/C (second compound 0.000949 µM, first compound 0.3 µM): 2.89%
- viability, T/C (second compound 0.000949 µM, first compound 0.949 µM): 1.55%
- viability, T/C (second compound 0.000949 µM, first compound 3 µM): 0.27%
- viability, T/C (second compound 0.003 µM, first compound 0.00949 µM): 0.19%
- viability, T/C (second compound 0.003 µM, first compound 0.03 µM): 0.19%
- viability, T/C (second compound 0.003 µM, first compound 0.0949 µM): 0.17%
- viability, T/C (second compound 0.003 µM, first compound 0.3 µM): 0.22%
- viability, T/C (second compound 0.003 µM, first compound 0.949 µM): 0.18%
- viability, T/C (second compound 0.003 µM, first compound 3 µM): 0.42%

Structure (SMILES): Cc1sc2c(c1C)C(c1ccc(Cl)cc1)=NC(CC(=O)Nc1ccc(O)cc1)c1nnc(C)n1-2 (configuration not stated)
- viability, T/C (compound 0.00949 µM): 119% (2×) and 110%
- viability, T/C (compound 0.03 µM): 124% and 90% and 120%
- viability, T/C (compound 0.0949 µM): 132% and 104% and 113%
- viability, T/C (compound 0.3 µM): 114% and 102% and 124%
- viability, T/C (compound 0.949 µM): 92.9% and 71.4% and 81.5%
- viability, T/C (compound 3 µM): 49.3% and 34.5% and 57.9%
- IC50 (curve of compound): 2950 nM and 1850 nM and > 3000 nM

Reference: PubChem BioAssay AID1845196 (Molecular Pharmacology Branch, DTP, NCI, 2023)
